Source: BindingDB's records for patent US11708351 (Achillion Pharmaceuticals, 2023)

Target: Complement factor D (Homo sapiens, UniProt P00746)
Test: Human Factor D Assay
Method: Human Factor D (purified from human serum, Complement Technology, Inc.) at 80 nM final concentration is incubated with test compound at various concentrations for 5 min at room temperature in 50 mM Tris, 1M NaCl, pH 7.5. A synthetic substrate Z-L-Lys-SBzl and DTNB (Ellman's reagent) are added to final concentrations of 100 μM each. Absorbance at 405 nm (A405) is recorded at 30 second intervals for 30 min using a microplate spectrophotometer. IC50 values are calculated by nonlinear regression of complement Factor D reaction rates as a function of test compound concentration.

Complement factor D, sequence (P00746 whole entry): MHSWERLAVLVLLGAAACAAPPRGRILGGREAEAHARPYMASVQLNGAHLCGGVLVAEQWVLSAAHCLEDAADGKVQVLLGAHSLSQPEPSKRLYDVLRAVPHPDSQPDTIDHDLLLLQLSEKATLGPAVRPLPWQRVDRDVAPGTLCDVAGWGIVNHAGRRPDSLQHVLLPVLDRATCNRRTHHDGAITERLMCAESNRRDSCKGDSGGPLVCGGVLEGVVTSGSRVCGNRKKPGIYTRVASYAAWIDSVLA

## CC(=O)c1nn(CC(=O)N2[C@@H](C(=O)Nc3nc(Br)ccc3C)C[C@@]3(C)C[C@@H]23)c2ccc(-c3cnc(C)nc3)cc12 [US11708351, Compound 279]
  IC50: > 10 µM
